Tests used:
[1] = system: peripheral blood lymphocytes; experiment: Measurement of circulating lymphocytes (blood lymphocyte depletion); type: in vivo, mice (C57bl/6 male); details: Mus musculus, mice, oral gavage, blood collected 6 and 24 hours after administration, read-out: ED50, effective dose required displaying 50% of blood lymphocyte depletion
Method: Measurements of circulating lymphocytes: Compounds are dissolved in DMSO and diluted to obtain a final concentration of 4% DMSO (v/v, final concentration) and then further diluted in a constant volume of Tween80 25%/H2O, v/v. Tween80 25%/H2O (200 μl), 4% DMSO, and FTY720 (10 μg) are included as negative and positive controls, respectively. Mice (C57bl/6 male, 6-10 week-old) are administered 250-300 μL of compound solution orally by gavages under short isoflurane anesthesia.
Blood is collected from the retro-orbital sinus 6 and 24 hours after drug administration under short isoflurane anesthesia. Whole blood samples are subjected to hematology analysis. Peripheral lymphocyte counts are determined using an automated analyzer. Subpopulations of peripheral blood lymphocytes are stained by fluorochrome-conjugated specific antibodies and analyzed using a fluorescent activating cell sorter (Facscalibur). Two mice are used to assess the lymphocyte depletion activity of each compound screened. The result is an ED50, which is defined as the effective dose required displaying 50% of blood lymphocyte depletion.

[2] = system: EDG-3, EDG-5, EDG-6 and EDG-8; experiment: EDG-3, -5, -6 and -8 GTP [γ-35S] binding assays (selectivity versus EDG-1); type: biochemical, human
Method: (§1) A. In vitro: A scintillation proximity assay (SPA) for measuring GTP [γ-^35S]binding to membranes prepared from CHO cells expressing human EDG/S1P receptors.
Concentrations of EDG receptor expressing membranes range between 13-19 μg per well.

[3] = target: T1, human EDG-1 (Homo sapiens, UniProt P21453); experiment: EDG-1 (S1P1) GTP [γ-35S] binding assay (SPA); type: biochemical; details: membranes of CHO cells expressing human EDG-1
T1 construct: c-myc (N); expressed in transfected cells; host or cells: CHO cell clones (membrane preparation)
T1 sequence (P21453 whole entry): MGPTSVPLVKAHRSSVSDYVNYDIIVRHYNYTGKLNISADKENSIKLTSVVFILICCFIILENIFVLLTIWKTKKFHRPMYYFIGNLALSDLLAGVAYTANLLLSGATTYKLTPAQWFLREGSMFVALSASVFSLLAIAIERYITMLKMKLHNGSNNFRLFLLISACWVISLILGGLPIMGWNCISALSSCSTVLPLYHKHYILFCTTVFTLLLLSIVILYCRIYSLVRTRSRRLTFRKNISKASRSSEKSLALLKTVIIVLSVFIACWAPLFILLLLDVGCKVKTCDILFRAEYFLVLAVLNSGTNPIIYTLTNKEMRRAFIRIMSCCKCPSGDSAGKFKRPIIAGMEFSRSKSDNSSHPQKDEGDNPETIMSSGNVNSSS
Method: as §1
EDG-1 (S1P1) GTP [γ-^35S] binding assay: Membrane protein suspensions are prepared from CHO cell clones stably expressing a human EDG-1 N-terminal c-myc tag. Solution of test compounds ranging from 10 mM to 0.01 nM are prepared in DMSO/50 mM HCl and then diluted into assay buffer (20 mM HEPES, pH7.4, 100 mM NaCl, […], 0.1% fat free BSA). Assay buffer containing 10 mM GDP is mixed with wheat germ agglutinin-coated SPA-beads (1 mg/well) followed by the addition of human EDG-1 membrane protein suspension (10 μg/well) and test compound. The bead/membrane/compound assay components are then mixed for 10-15 minutes on a shaker at room temperature. GTP [γ-^35S] ([…]) and bead/membrane/compound assay mixture are added to individual wells of a 96 well Optiplate™(final volume 225 μl/well), sealed and incubated at room temperature for 110 to 120 minutes under constant shaking. After centrifugation (2000 rpm, 10 minutes) luminescence is measured with a TopCount™ instrument.
EC50 values are obtained by fitting the GTP [γ-^35S] binding curves (raw data) with the dose response curve-fitting tool of ORIGIN V. 6.1. […]

| selectivity for EDG-1 compared to one or more of the other receptors including EDG-3, EDG-5, EDG-6 and EDG-8 [2] | EC50 [3] | SMILES | ED50 [1] |
| --- | --- | --- | --- |
| – | – | O=C(O)C1CN(Cc2ccc3c(c2)CCC/C3=N\OCc2ccc(C3CCCCC3)c(C(F)(F)F)c2)C1 [Example 2, 1-[5-(4-Cyclohexyl-3-trifluoromethyl-benzyloxyimino)-5,6,7,8-tetrahydro-naphthalen-2-ylmethyl]-azetidine-3-carboxylic acid] | 0.2 mg/kg |
| at least 1000 fold | 0.78 nM | O=C(O)CCNCc1ccc2c(c1)CCC/C2=N\OCc1ccc(C2CCCCC2)c(C(F)(F)F)c1 [Example 1, 3-{[5-(4-Cyclohexyl-3-trifluoromethyl-benzyloxyimino)-5,6,7,8-tetrahydro-naphthalen-2-ylmethyl]-amino}-propionic Acid] | – |

From patent publication US7718704B2, “Immunosuppressant compounds and compositions” (IRM LLC, priority 2004, dated 2010)
